# “Also recorded” adds a separate entry of the source. Read-outs that look alike come from different tables or passages of the source.
# Tests used:
# [1] = test system: human sarcoma cell line RH30; assay: Cell viability (MTT) assay, RH30; assay type: cell-based
# Method: (§1) Human sarcoma cell lines (RD2, RH30, U2OS) were seeded in 96-well plates at a density of 3,000 cells per well. The cells were incubated at 37° C. for a period of 24 hours. Different concentrations of LY-5 (0.1-10 μM), LY-3 (0.1-20 μM), and LLL12 (0.1-10 μM) prepared as a 20 mM stock solution in sterile DMSO were added in triplicate to the plates in the presence of 10% FBS. 3-(4,5-Dimethylthiazolyl)-2, 5-diphenyltetrazoliumbromide (MTT) was added to evaluate cell viability. The absorbance was read at 595 nm. IC50 values were determined using SigmaPlot 9.0 Software (Systat Software, Inc., San Jose, Calif.).
# (§2) Alternatively, cells were seeded in 96-well plates in triplicate at a density of 3,000 cells per well and given 24 hours to adhere. Cells were then treated with varying concentrations of the inhibitors in the presence of 10% FBS. The cells were incubated for 72 hours at 37° C. 25 μl of MTT dye (Sigma, #M5655) was added to each sample and incubated for 3.5 hours. After this, 100 μl of N,N-dimethylformamide (Sigma, #D4551) solubilization solution was added to each well. The absorbance at 450 nm was read the following day. Half-Maximal inhibitory concentrations (IC50) were determined using Sigma Plot 9.0 software (Systat Software Inc.).
# Table 7 below lists specific compounds as well as experimentally determined STAT3 activity in a cell-based assay. The STAT3 activity was determined using the cell viability assays with human sarcoma cell lines (RD2, RH30, U2OS) as described above. The compound reference numbers (“Ref. No.”) in Table 7 correspond to the compound numbers used in Table 3.
# [2] = test system: human sarcoma cell lines (RD2, RH30, U2OS); assay: Cell viability (MTT) assay, different cell lines; assay type: cell-based; conditions: in different cell lines
# Method: as §1, §2
# [3] = target: STAT3 SH2 domain (Homo sapiens, UniProt P40763); assay: Fluorescence polarization (FP) assay; assay type: binding
# STAT3 SH2 domain, sequence (P40763 580-670 limits assumed): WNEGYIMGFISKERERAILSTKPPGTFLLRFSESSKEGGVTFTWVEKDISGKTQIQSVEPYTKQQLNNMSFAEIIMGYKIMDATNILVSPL
# Method: Screening was performed at physiologically relevant temperature 37° C. Before each experiment, Compound LY-5 was prepared freshly from the stock solution. Compound LY-5 increased its background fluorescence reading at 595 nm at high concentrations, so the control solutions for each concentration were prepared by mixing buffer, LY-5, and fluorescence-labeled peptides together.
# Screening was performed at approximately 37° C. STAT3 protein was used at 300 nM. The final concentration of buffer components used for all FP assays was 10 mM HEPES (pH 7.5), 1 mM EDTA, 0.1% Nonidet P-40, 50 mM NaCl, and 20% DMSO. Dithiothreitol was not added. LP-5 was diluted to a series of concentrations (1-200 μM) from a 20 mM stock in DMSO. Proteins were incubated with LP-5 in Eppendorf tubes at room temperature for 60 min prior addition of the 5-carboxyfluorescein labeled peptides. The final concentration of labeled peptide is 10 nM. The mixtures were transferred to a 384 Well Costar Black plate with each concentration repeated in three wells. The mixtures were equilibrated in the incubator at 37° C. for at least 30 min. The FP readings were measured and the experiments were repeated three times. Inhibition curves with standard deviation were fitted and Ki value was determined accordingly.
# [4] = test system: IL-6 induced STAT3 phosphorylation; assay: Western blot, IL-6 induced STAT3 phosphorylation; assay type: cell-based, human
# Method: RH30 cells were treated with DMSO, LY-5 (0.25-1 μM) and LY-3 (0.5-2.5 μM) prepared as a 20 mM stock solution in sterile DMSO at 60% to 80% confluence in the presence of 10% FBS for 24 hours. The sarcoma cell line EW8 was treated with DMSO and LY-5 (0.5-2.5 μM) prepared as a 20 mM stock solution in sterile DMSO at 60% to 80% confluence in the presence of 10% FBS for 24 hours. MCF-7 cells and DAOY cells were treated with DMSO, 25-50 ng/ml of IL-6, LY-5 (0.25-1 μM) or LY-3 (0.5-2.5 μM) prepared as a 20 mM stock solution in sterile DMSO, protein expressions of P-STAT3 (Tyr705) and STAT3 were tested. DAOY cells were treated with DMSO, 50 ng/ml of IFN-γ, LY-5 (1-5 μM) prepared as a 20 mM stock solution in sterile DMSO, protein expressions of P-STAT3 (Tyr705) and STAT3 were tested. MCF-7 cells were treated with DMSO, 50 ng/ml of OSM, LY-5 (1-2.5 μM) or LLL12 (1-2.5 μM) prepared as a 20 mM stock solution in sterile DMSO, protein expressions of P-STAT3 (Tyr705), P-STAT1, P-STAT5, P-ERK (T202/Y204), P-AKT, STAT3 and STAT1 were tested.
# The cells were harvested and lysed in cold radioimmunoprecipitation assay (RIPA) lysis buffer containing […] and phosphatase inhibitor cocktail, and were subjected to SDS-PAGE. Then they were transferred to PVDF membrane. Membranes were probed with primary antibodies (1:1,000) and horseradish peroxidase (HRP)-conjugated secondary antibody (1:10,000) (Cell Signaling Technology, Beverly, Mass.). Membranes were analyzed using Enhanced Chemiluminescence Plus reagents and scanned with the Storm Scanner (Amersham Pharmacia Biotech, Inc., Piscataway, N.J.).
# MCF-7 breast cancer cells were seeded in 10 cm plates and allowed to adhere overnight. The following day, the cells were serum-starved. The cells were then left untreated or were treated with LY-5 (0.25-1 μM) and LY-3 (0.5-2.5 μM) prepared as a 20 mM stock solution in sterile DMSO or DMSO. After 5 hours, the untreated and LY-5 and LY-3 treated cells were stimulated by IL-6 (25 ng/mL). The cells were harvested after 30 minutes and analyzed by Western blot. DAOY medulloblastoma cancer cells were seeded in 10 cm plates and allowed to adhere overnight. The following day, the cells were serum-starved. The cells were then left untreated or were treated with LY-5 (1-5 μM) prepared as a 20 mM stock solution in sterile DMSO or DMSO. After 2 hours, the untreated and LY-5 treated cells were stimulated by IL-6 (25 ng/mL). The cells were harvested after 30 minutes and analyzed by Western blot.
# [5] = target: T1, STAT3 dimerization (Homo sapiens, UniProt P40763); assay: STAT3 dimerization in transfected HeLa cells; assay type: cell-based; conditions: flag- and HA-tagged STAT3
# T1 construct: expressed in transfected cells; host or cells: HeLa
# T1 sequence (P40763 whole entry): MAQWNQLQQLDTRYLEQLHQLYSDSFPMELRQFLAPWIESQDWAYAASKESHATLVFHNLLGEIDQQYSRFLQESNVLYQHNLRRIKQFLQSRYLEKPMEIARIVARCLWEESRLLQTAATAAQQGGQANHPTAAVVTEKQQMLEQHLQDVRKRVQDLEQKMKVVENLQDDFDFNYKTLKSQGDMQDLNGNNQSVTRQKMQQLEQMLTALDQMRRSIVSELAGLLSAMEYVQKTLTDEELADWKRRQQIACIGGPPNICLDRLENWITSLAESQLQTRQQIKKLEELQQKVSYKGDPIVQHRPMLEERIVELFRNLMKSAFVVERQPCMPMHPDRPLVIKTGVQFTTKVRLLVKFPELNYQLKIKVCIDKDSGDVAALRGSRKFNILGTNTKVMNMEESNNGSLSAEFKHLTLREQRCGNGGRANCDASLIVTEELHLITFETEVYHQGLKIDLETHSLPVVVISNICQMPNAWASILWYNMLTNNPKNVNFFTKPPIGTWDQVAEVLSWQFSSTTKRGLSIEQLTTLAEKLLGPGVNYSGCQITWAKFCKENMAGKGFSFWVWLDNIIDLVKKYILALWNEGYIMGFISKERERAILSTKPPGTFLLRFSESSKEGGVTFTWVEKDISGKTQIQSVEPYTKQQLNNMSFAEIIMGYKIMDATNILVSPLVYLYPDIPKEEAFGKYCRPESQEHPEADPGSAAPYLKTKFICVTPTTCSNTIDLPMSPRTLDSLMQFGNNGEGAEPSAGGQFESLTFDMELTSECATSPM
smiles,measurement,setting,value
"NS(=O)(=O)c1cccc2c1C(=O)C=C(Nc1cccnc1)C2=O [LY-5, 5,8-dioxo-6-(pyridin-3-ylamino)-5,8-dihydronaphthalene-1-sulfonamide]",IC50,"[1]; Table 7, read-out: IC50 RH30",550 nM
same,IC50,"[1]; Table 8, read-out: IC50 values vs. cell lines, RH30",550 nM
same,IC50,[2],500 to 1400 nM
same,binding to STAT3 SH2 protein,"[3]; 37° C., FIG. 8",binds
same,Ki,"[3]; 37° C., STAT3 300 nM, labeled peptide 10 nM",2500 nM
same,experimental ΔG value,[3]; from FP Ki,-7.9 kcal/mol
same,IL-6 induced STAT3 phosphorylation,"[4]; DAOY, up to 5 μM, 2 h",inhibits; also recorded: blocked the stimulation
same,IL-6 induced STAT3 phosphorylation,"[4]; DLD1, 0-5 μM, 2 h, IL-6 50 ng/mL",inhibits
same,IL-6 induced STAT3 phosphorylation,"[4]; MCF-7, LY-3 0.5-2.5 μM, LY-5 0.25-1 μM, 5 h, IL-6 25 ng/mL",inhibit; also recorded: blocked the stimulation
same,IL-6 induced STAT3 phosphorylation at Y705,"[4]; SJSA, 0-2.5 μM, 3 h",inhibits
same,STAT3 dimerization,[5],inhibits
